Experimental data from patent publication US20070049564A1 (Wyeth, priority 2005, published 2007).
Values after ≈ are worked out from the molar mass of the structure shown. Read-outs that look alike come from different tables or passages of the source.

How the values were obtained:
[1] = system: S. pneumoniae+ GC 4465; experiment: MIC, broth microdilution; settings: Streptococcus pneumoniae
[2] = system: S. pyogenes GC 4563; experiment: MIC, broth microdilution; settings: Streptococcus pyogenes
[3] = system: E. coli GC 4559; experiment: MIC, broth microdilution; settings: Escherichia coli
[4] = system: Staph. aureus Smith; experiment: In vivo activity (oral, iv; ED50) against Staph. aureus Smith in mice
Protocol: Representative examples of compounds of Formula I were tested for the oral efficacy using S. aureus Smith in mice.

[5] = system: E. coli GC 2232; experiment: MIC, broth microdilution; settings: Escherichia coli
[6] = system: E. coli GC 3226; experiment: MIC, broth microdilution; settings: Escherichia coli
Protocol: (§1) Antimicrobial susceptibility testing. The in vitro activities of the antibiotics are determined by the broth microdilution method as recommended by the National Committee for Clinical Laboratory Standards (NCCLS) (1). Mueller-Hinton II broth (MHBII)(BBL Cockeysville, Md.) is the medium employed in the testing procedures. Microtiter plates containing serial dilutions of each antimicrobial agent are inoculated with each organism to yield the appropriate density (10^5 CFU/ml) in a 100 μl final volume. The plates are incubated for 18-22 hours at 35° C. in ambient air.
Representative compounds were first incubated in mouse serum for an hour prior to the in vitro testing against a panel of selected gram-positive and gram-negative bacteria strains. All compounds were also pre-incubated in water for an hour prior to testing as control. Representative compounds of Formula I were incubated in human serum prior to MIC determination.

[7] = system: S. aureus GC 1131; experiment: MIC, broth microdilution; settings: Staphylococcus aureus
[8] = system: E. faecalis GC 2267; experiment: MIC, broth microdilution; settings: Enterococcus faecalis
[9] = system: E. coli GC 2272; experiment: MIC, broth microdilution; settings: Escherichia coli
[10] = system: P. aeruginosa GC 2214; experiment: MIC, broth microdilution; settings: Pseudomonas aeruginosa
[11] = system: E. coli GC 2234; experiment: MIC, broth microdilution; settings: Escherichia coli
[12] = system: E. coli GC 2236; experiment: MIC, broth microdilution; settings: Escherichia coli
[13] = system: E. faecalis GC 2265; experiment: MIC, broth microdilution; settings: Enterococcus faecalis
[14] = system: S. agalactiae GC 4564; experiment: MIC, broth microdilution; settings: Streptococcus agalactiae
[15] = system: S. aureus GC 6335; experiment: MIC, broth microdilution; settings: Staphylococcus aureus
[16] = system: E. coli GC 2203; experiment: MIC, broth microdilution; settings: Escherichia coli
[17] = system: S. epidermidis GC 4935; experiment: MIC, broth microdilution; settings: Staphylococcus epidermidis
[18] = system: S. pneumoniae* GC 4465; experiment: MIC, broth microdilution; settings: Streptococcus pneumoniae
[19] = system: E. faecalis GC 4555; experiment: MIC, broth microdilution; settings: Enterococcus faecalis
[20] = system: E. coli GC 2271; experiment: MIC, broth microdilution; settings: Escherichia coli
Protocol: as §1
Representative compounds were first incubated in mouse serum for an hour prior to the in vitro testing against a panel of selected gram-positive and gram-negative bacteria strains. All compounds were also pre-incubated in water for an hour prior to testing as control.

[21] = read-out: MINIMAL INHIBITORY CONCENTRATION MIC, pre-incubated in Mouse Serum
[22] = read-out: MINIMAL INHIBITORY CONCENTRATION MIC, pre-incubated in Water
[23] = GC4563, read-out: MINIMAL INHIBITORY CONCENTRATION MIC, pre-incubated in Mouse Serum
[24] = GC4563, read-out: MINIMAL INHIBITORY CONCENTRATION MIC, pre-incubated in Water
[25] = GC4559, read-out: MINIMAL INHIBITORY CONCENTRATION MIC, pre-incubated in Mouse Serum
[26] = GC4559, read-out: MINIMAL INHIBITORY CONCENTRATION MIC, pre-incubated in Water
[27] = Staphylococcus aureus, in Mus musculus, po, read-out: ED50 Staph Smith SOD
[28] = iv, read-out: ED50 Staph Smith SIV
[29] = GC2232, read-out: MINIMAL INHIBITORY CONCENTRATION MIC, pre-incubated in Mouse Serum
[30] = GC2232, read-out: MINIMAL INHIBITORY CONCENTRATION MIC, pre-incubated in Water
[31] = GC3226, read-out: MINIMAL INHIBITORY CONCENTRATION MIC, pre-incubated in Mouse Serum
[32] = GC3226, read-out: MINIMAL INHIBITORY CONCENTRATION MIC, pre-incubated in Water
[33] = GC1131, read-out: MINIMAL INHIBITORY CONCENTRATION MIC, pre-incubated in Mouse Serum
[34] = GC1131, read-out: MINIMAL INHIBITORY CONCENTRATION MIC, pre-incubated in Water
[35] = GC2267, read-out: MINIMAL INHIBITORY CONCENTRATION MIC, pre-incubated in Mouse Serum
[36] = GC2267, read-out: MINIMAL INHIBITORY CONCENTRATION MIC, pre-incubated in Water
[37] = GC2272, read-out: MINIMAL INHIBITORY CONCENTRATION MIC, pre-incubated in Mouse Serum
[38] = GC2272, read-out: MINIMAL INHIBITORY CONCENTRATION MIC, pre-incubated in Water
[39] = GC2214, read-out: MINIMAL INHIBITORY CONCENTRATION MIC, pre-incubated in Mouse Serum
[40] = GC2214, read-out: MINIMAL INHIBITORY CONCENTRATION MIC, pre-incubated in Water
[41] = GC2234, read-out: MINIMAL INHIBITORY CONCENTRATION MIC, pre-incubated in Mouse Serum
[42] = GC2234, read-out: MINIMAL INHIBITORY CONCENTRATION MIC, pre-incubated in Water
[43] = GC2236, read-out: MINIMAL INHIBITORY CONCENTRATION MIC, pre-incubated in Mouse Serum
[44] = GC2236, read-out: MINIMAL INHIBITORY CONCENTRATION MIC, pre-incubated in Water
[45] = GC2265, read-out: MINIMAL INHIBITORY CONCENTRATION MIC, pre-incubated in Mouse Serum
[46] = GC2265, read-out: MINIMAL INHIBITORY CONCENTRATION MIC, pre-incubated in Water
[47] = GC4564, read-out: MINIMAL INHIBITORY CONCENTRATION MIC, pre-incubated in Mouse Serum
[48] = GC4564, read-out: MINIMAL INHIBITORY CONCENTRATION MIC, pre-incubated in Water
[49] = GC6335, read-out: MINIMAL INHIBITORY CONCENTRATION MIC, pre-incubated in Mouse Serum
[50] = GC6335, read-out: MINIMAL INHIBITORY CONCENTRATION MIC, pre-incubated in Water
[51] = GC2203, read-out: MINIMAL INHIBITORY CONCENTRATION MIC, pre-incubated in Mouse Serum
[52] = GC2203, read-out: MINIMAL INHIBITORY CONCENTRATION MIC, pre-incubated in Water
[53] = GC4935, read-out: MINIMAL INHIBITORY CONCENTRATION MIC, pre-incubated in Mouse Serum
[54] = GC4935, read-out: MINIMAL INHIBITORY CONCENTRATION MIC, pre-incubated in Water
[55] = GC4555, read-out: MINIMAL INHIBITORY CONCENTRATION MIC, pre-incubated in Mouse Serum
[56] = GC4555, read-out: MINIMAL INHIBITORY CONCENTRATION MIC, pre-incubated in Water
[57] = GC2271, read-out: MINIMAL INHIBITORY CONCENTRATION MIC, pre-incubated in Mouse Serum
[58] = GC2271, read-out: MINIMAL INHIBITORY CONCENTRATION MIC, pre-incubated in Water

Row | SMILES | MIC [1, 21] [µg/mL] | MIC [1, 22] [µg/mL] | MIC [2, 23] [µg/mL] | MIC [2, 24] [µg/mL] | MIC [3, 25] [µg/mL] | MIC [3, 26] [µg/mL] | ED50 [4, 27] [mg/kg] | ED50 [4, 28] [mg/kg] | MIC [5, 29] [µg/mL] | MIC [5, 30] [µg/mL] | MIC [6, 31] [µg/mL] | MIC [6, 32] [µg/mL] | MIC [7, 33] [µg/mL] | MIC [7, 34] [µg/mL] | MIC [8, 35] [µg/mL] | MIC [8, 36] [µg/mL] | MIC [9, 37] [µg/mL] | MIC [9, 38] [µg/mL] | MIC [10, 39] [µg/mL] | MIC [10, 40] [µg/mL] | further results
1 | CCCCN(CC(=O)Nc1cc(N(C)C)c2c(c1O)C(=O)C1=C(O)[C@]3(O)C(=O)C(C(N)=O)=C(O)[C@@H](N(C)C)[C@@H]3C[C@@H]1C2)C(=O)OCOC(=O)c1cccs1 [Example 23, ({[(2-{[(5aR,6aS,7S,10aS)-9-(aminocarbonyl)-4,7-bis(dimethylamino)-1,8,10a,11-tetrahydroxy-10,12-dioxo-5,5a,6,6a,7,10,10a,12-octahydrotetracen-2-yl]amino}-2-oxoethyl)(butyl)amino]carbonyl}oxy)methyl thiophene-2-carboxylate] | 4 (≈ 5.2 µM) | 8 (≈ 10.4 µM) | 0.12 (≈ 0.156 µM) | 0.25 (≈ 0.325 µM) | 2 (≈ 2.6 µM) | > 64 | 19 | 0.47 | 1 (≈ 1.3 µM) | > 64 | 8 (≈ 10.4 µM) | > 64 | 1 (≈ 1.3 µM) | 2 (≈ 2.6 µM) | 2 (≈ 2.6 µM) | 8 (≈ 10.4 µM) | 1 (≈ 1.3 µM) | > 64 | > 64 | > 64 | MIC [11, 41]: 1 µg/mL (≈ 1.3 µM); MIC [11, 42]: > 64 µg/mL; MIC [12, 43]: 2 µg/mL (≈ 2.6 µM); MIC [12, 44]: > 64 µg/mL; MIC [13, 45]: 1 µg/mL (≈ 1.3 µM); MIC [13, 46]: 4 µg/mL (≈ 5.2 µM); MIC [14, 47]: 0.25 µg/mL (≈ 0.325 µM); MIC [14, 48]: 0.25 µg/mL (≈ 0.325 µM); MIC [15, 49]: 2 µg/mL (≈ 2.6 µM); MIC [15, 50]: 4 µg/mL (≈ 5.2 µM); MIC [16, 51]: 1 µg/mL (≈ 1.3 µM); MIC [16, 52]: > 64 µg/mL; MIC [17, 53]: 2 µg/mL (≈ 2.6 µM); MIC [17, 54]: 4 µg/mL (≈ 5.2 µM); MIC [18, 21]: 0.12 µg/mL (≈ 0.156 µM); MIC [18, 22]: 0.12 µg/mL (≈ 0.156 µM); MIC [19, 55]: 1 µg/mL (≈ 1.3 µM); MIC [19, 56]: 4 µg/mL (≈ 5.2 µM); MIC [20, 57]: 1 µg/mL (≈ 1.3 µM); MIC [20, 58]: > 64 µg/mL
2 | CCCN(CC(=O)Nc1cc(N(C)C)c2c(c1O)C(=O)C1=C(O)[C@]3(O)C(=O)C(C(N)=O)=C(O)[C@@H](N(C)C)[C@@H]3C[C@@H]1C2)C(=O)OCOC(=O)c1ccc(-c2ccccc2)cc1 [Example 24, ({[(2-{[(5aR,6aS,7S,10aS)-9-(aminocarbonyl)-4,7-bis(dimethylamino)-1,8,10a,11-tetrahydroxy-10,12-dioxo-5,5a,6,6a,7,10,10a,12-octahydrotetracen-2-yl]amino}-2-oxoethyl)(propyl)amino]carbonyl}oxy)methyl 1,1′-biphenyl-4-carboxylate] | 2 (≈ 2.42 µM) | 1 (≈ 1.21 µM) | < 0.06 | < 0.06 | 1 (≈ 1.21 µM) | > 64 | 27 | 0.59 | 0.5 (≈ 0.605 µM) | > 64 | 1 (≈ 1.21 µM) | > 64 | 1 (≈ 1.21 µM) | 2 (≈ 2.42 µM) | 4 (≈ 4.84 µM) | 64 (≈ 77.5 µM) | 1 (≈ 1.21 µM) | > 64 | 16 (≈ 19.4 µM) | > 64 | MIC [11, 41]: 0.5 µg/mL (≈ 0.605 µM); MIC [11, 42]: > 64 µg/mL; MIC [12, 43]: 1 µg/mL (≈ 1.21 µM); MIC [12, 44]: > 64 µg/mL; MIC [13, 45]: 2 µg/mL (≈ 2.42 µM); MIC [13, 46]: 32 µg/mL (≈ 38.7 µM); MIC [14, 47]: 0.5 µg/mL (≈ 0.605 µM); MIC [14, 48]: 8 µg/mL (≈ 9.69 µM); MIC [15, 49]: 2 µg/mL (≈ 2.42 µM); MIC [15, 50]: 16 µg/mL (≈ 19.4 µM); MIC [16, 51]: 0.5 µg/mL (≈ 0.605 µM); MIC [16, 52]: > 64 µg/mL; MIC [17, 53]: 2 µg/mL (≈ 2.42 µM); MIC [17, 54]: 16 µg/mL (≈ 19.4 µM); MIC [18, 21]: < 0.06 µg/mL; MIC [18, 22]: < 0.06 µg/mL; MIC [19, 55]: 1 µg/mL (≈ 1.21 µM); MIC [19, 56]: 64 µg/mL (≈ 77.5 µM); MIC [20, 57]: 0.5 µg/mL (≈ 0.605 µM); MIC [20, 58]: > 64 µg/mL
